Columns and labels:
[1] = test system: skin tumors and estrogen-induced renal tumors; conditions: in vivo; cited from earlier work
[2] = test system: breast and gastric cancer; conditions: cited from earlier work
NK cell population = NK cell population and sub-populations by flow cytometry, Example 1; assay type: in vivo, human; conditions: 0 and 24 hours post treatment; Anti-CD56 and Anti-CD3
Protocol: NK cell subset enumeration was carried out in ascorbate-treated and non-treated cell populations. A single laser flow cytometer (Epics Profile: Coulter Epics, Inc., Hialeah, Fla.), which discriminates forward and right-angle light scatter, as well as two colors, was used with an appropriate software package (Quad Stat: Coulter). Mononuclear cell populations were determined by two-color direct immunofluorescence, by using a whole-blood staining technique with the appropriate monoclonal antibody and flow cytometry. […]
lymphocyte markers, bit maps were set on the lymphocyte population of the forward-angle light scatter versus a 90° light scatter histogram. The percentage of positively stained cells for each marker pair, as well as the percentage of doubly stained cells, was determined. Estimates of the absolute numbers of lymphocyte positive for the respective surface markers were determined by multiplying peripheral lymphocyte cell count by the percentage of cells positive for each surface marker.
Total NK cell population and its sub-populations were also examined in this example. The total NK cell population and its sub-populations were determined both post-treatment with ascorbic acid alone and post-treatmentwith the formulation of the present invention by flow cytometry, using Anti-CD56 and Anti-CD3 monoclonal antibodies, respectively.

clinical [3] = conditions: human, plasma, 60 mg/kg
Protocol: Twenty-two healthy subjects were randomly selected for this example. The subjects ranged in age from 20 to 24 years, with a mean of 22 years. The subjects had not ingested any medications for at least two weeks before participation in the study.
Clearance and the uptake of ascorbic acid was measured in the plasma and mononuclear cell, respectively.
Briefly described, 5×10^6 cells were suspended in 0.2 ml of PBS, sonicated for 30 seconds, and 1 ml of 5% trichloroacetic acid (TCA) was added. The mixture was centrifuged to remove the precipitates and the supernatant was used to measure the level of ascorbic acid. From the mixture, 1.2 ml of this supernatant or 0.5 ml plasma was mixed with 0.4 ml of Dinitrophenyl-hydrazine-Thiourea-Copper (DCT) reagent, incubated at 37° C. for 3 hours, then transferred to an ice-water bath for 10 minutes. Then 2 ml of cold 12M H2 SO4 was added and the mixture was kept at room temperature for 20 min.

glutathione = conditions: 500 mg/day; cited from earlier work
K562 tumor target cells [4] = assay: NK cell cytotoxic activity (4-hr 51Cr-release assay) before and after oral administration to healthy subjects, Example 1; assay type: in vivo, human
Protocol: This example compares the effect of ascorbic acid and the formulation of the present invention on NK cell activity, NK cell population, and peripheral blood leukocyte (PBL) uptake.
(§1) Lymphocytes were prepared from fresh heparinized peripheral venous blood by Ficoll-Hypaque density gradient centrifugation (Litton Bionetics, Rockville, Md.). Cells were washed three times with Hanks' balanced salt solution (HBSS), and resuspended to a concentration of 10×10^6 cells/ml in a complete medium (CM), that consisted of RPMI-1640 supplemented with 10% fetal calf serum and 1% antibiotics (100 U penicillin and 100 μg/ml streptomycin) and within an hour of isolation cells were used for different assays.
(§2) Chromium-release Assay for measuring NK cell activity:
(§3) A standard 4-hr ^51 Cr-release assay was employed. Briefly, 1×10^4 ^51 Cr-labelled K562 tumor target cells in
(§4) 0.1 ml CM were added to different wells of a microtiter plate. Effector cells were then pipetted into quadruplicate wells to give effector: target (E:T) ratios of 6:1, 12:1, 25:1 and 50:1. After a 4-hr incubation at 37° C., the microtiter plates were centrifuged at 1400 rpm for 5 min and 0.1 ml of supernatant from each well was collected and counted in a gamma counter. The percentages of isotope released were calculated by the following formula: [formula]
(§5) Total release was measured by adding […] Triton X-100 to designated wells. Lytic units (LU) were calculated from effector titration curves. One LU was defined as the number of effector cells required to achieve 20% lysis.
In FIG. 1A the NK cell activity is represented in lytic units (LU) on the vertical axis with time being represented in hours on the horizontal axis.
In FIG. 1B, the hollow bars represent the subject's NK cell activity before administration of either ascorbic acid alone or the formulation of the present invention.

K562 tumor target cells [5] = assay: NK cell activity with repeated administration every four hours, Example 2; assay type: in vivo, human; conditions: 15 mg/kg ascorbic acid or biologically equivalent amount every four hours, twenty-four hours
Protocol: as §2, §3, §4, §5

clinical [6] = conditions: human, in vivo, 60 mg/kg
Protocol: as §1

[7] = test system: peripheral blood leukocyte (PBL); assay: clinical; conditions: human, in vivo, 0 min
Protocol: as §1

Which results are given for O=C1O[C@H]([C@@H](O)CO)C(O)=C1O [ascorbic acid, 3-oxo-1-gulofuranolactone]?
tumor regression [1]: causes regression of skin tumors and estrogen-induced renal tumors in vivo; antitumor activity [2]: demonstrates antitumor activity against breast and gastric cancer; percentages of total NK cell population, or its sub-populations (NK cell population): no significant effect; concentration at 1 h (clinical [3]): ~42000 ng/mL; plasma concentrations of glutathione (glutathione): increases plasma concentrations of glutathione; NK cell activity (K562 tumor target cells [4]; 60 mg/kg ascorbic acid, twenty-four hours post-administration, FIG. 1A): 90 LU; NK cell activity (K562 tumor target cells [4]; 60 mg/kg, forty-eight hours, FIG. 1A): declined to near pre-administration levels; NK cell activity change (K562 tumor target cells [4]; 60 mg/kg, one to two hours after administration, FIG. 1A): transitory decrease in NK cell activity; time of recovery of NK cell activity to pre-administration levels (K562 tumor target cells [4]; 60 mg/kg, post-administration, FIG. 1A): about four; period of inhibition of NK cell activity (K562 tumor target cells [4]; early transient phase, followed by enhancement): two to four; overall suppression of NK cell activity (summary) (K562 tumor target cells [4]; shortly after administration): transient suppression or inhibition of NK cell activity; suppression of NK cell activity (K562 tumor target cells [4]; zero to four hours post-administration, FIG. 1A): transient suppression of NK cell activity; NK cell activity (K562 tumor target cells [5]): repeated suppression of NK cell activity; concentration at 1 h (clinical [6]): 64 ng/mL; concentration at 2 h (clinical [6]): 101 ng/mL; concentration at 4 h (clinical [6]): 95 ng/mL; concentration at 8 h (clinical [6]): 79 ng/mL; concentration at 24 h (clinical [6]): 74 ng/mL; concentration at 48 h (clinical [6]): 49 ng/mL; mean (M±SD) uptake of ascorbic acid by 5×10^6 white blood cells [7]: 5.1 μg/dl
